Measurements published in PMC12700049, “Peptides From Adzuki Bean and Soybean Improved Insulin‐AKT Signaling‐Related Pathways in Healthy and Insulin‐Resistant States in Human Liver Cells” (Molecular Nutrition & Food Research, 2025).
Marks after values point to notes of the source that are not given here. Peptide text beside a SMILES is read from it.

Legend:
[1] = target: T1, DPP IV activity in HepG2 cells (Homo sapiens, UniProt P27487); experiment: Luminescence DPP IV assay in the cell‐based system (HepG2); conditions: 24 h treatment; for IC20: read-out: DPP IV inhibition IC20
T1 construct: dose‐response in vitro experiments conducted using the HepG2 cell culture; host or cells: HepG2
Procedure: (§1) HepG2 cells were seeded in either 96‐well plates or 6‐well plates for 24 h. For the healthy cell model (NG), cells were incubated in a medium with a healthy/normal glucose level (5.5 mM glucose), and no stimulation was performed. For the insulin‐resistant cell model (HG), cells were stimulated according to the methods used in a previous publication. In brief, cells were treated for 24 h using 25 mM glucose with 100 nM insulin to stimulate insulin resistance in the HepG2 cells. After seeding or insulin‐resistant stimulation, the cells were treated with selected pure AB7S peptides, selected pure S7S peptides, peptide Asp‐Leu‐Asp‐Val (DLDV; peptide with no DPP IV inhibitory capacity), or 1 nM linagliptin (DPP IV inhibitor) for 24 h. […] Treated cells were used to either perform cell viability assays or were collected, centrifuged, and stored at −80°C until being used.
DPP IV inhibition was measured using the luminescence DPPIV‐GLO Protease assay (G8351, Promega, Madison, WI). In brief, treated cells were incubated with three concentrations of selected pure AB7S peptides or selected pure S7S peptides for 24 h, and linagliptin (1 nM) was used as a positive control. Treated cells were collected and stored at −80°C for no more than one week until being used for the DPPIV‐GLO protease assay. Percent inhibition was calculated, and results were presented as percent inhibition per log (µg peptide/mL). The IC values of the peptides were calculated using Origin Pro software (Version 2021, OriginLab Corporation, Northampton, MA, USA).

[2] = target: purified human DPP IV enzyme (Homo sapiens, UniProt P27487); experiment: Luminescence DPPIV‐GLO DPP IV inhibition biochemical assay (cell‐free system)
Procedure: The luminescence DPPIV‐GLO Protease assay (G8351, Promega, Madison, WI) was performed to measure the DPP IV inhibitory capacity of selected AB7S peptides and S7S peptides. Percent inhibition was calculated for each sample. Results were presented as percent inhibition per log (µg peptide/mL). The inhibitory concentration (IC) values of the peptides were calculated using Origin Pro software (Version 2021, OriginLab Corporation, Northampton, MA, USA).

[3] = test system: Shc (SHC‐transforming protein 1); experiment: Insulin receptor phospho antibody microarray: Shc; format: cell-based, human; conditions: VP 9.58 µM, HepG2, healthy state, related to the untreated control, p < 0.05
Procedure: (§2) Cells treated with VP (9.58 µM) and the untreated cells were tested using immunoassay proteomics. The IC50 value of VP obtained from the luminescence‐based DPP IV inhibition biochemical assay was used as the treatment concentration. Cells were treated as described in Section 2.4. An insulin receptor microarray was performed according to the manufacturer's instructions to test the protein expression of markers in the insulin signaling pathway (Insulin Receptor Phospho Antibody Array, PIG219, Full Moon BioSystem, Sunnyvale, CA, USA). Array signals were visualized with a 20× objective using a Widefield Fluorescence Microscope (Carl Zeiss AG, Germany) and were analyzed as previously described. Student's t‐test was used to assess the differences between the VP treatment and the negative control.

[4] = test system: ACCα; experiment: Western blot ACCα protein expression in HepG2 cells; format: cell-based, human; conditions: VP 9.58 µM, IPA 7.86 µM, DLDV 1790 µM, 24 h; for ACCα protein expression, change versus untreated controls: healthy state (NG, 5.5 mM glucose), linagliptin 1 nM; for ACCα protein expression, change versus untreated insulin‐resistant cells: insulin‐resistant state (HG, 25 mM glucose with 100 nM insulin)
Procedure: as §1
(§3) Cells treated with VP (9.58 µM), IPA (7.86 µM), DLDV (1790 µM), or linagliptin (1 nM) and untreated cells were used for western blot. In brief, membranes were incubated with conjugated antibodies for human IRS‐1 (sc‐8038 HRP, 1:100) and Akt‐1 (sc‐5298 HRP, 1:100), or ACCα (sc‐137104 HRP, 1:100) overnight at 4°C and washed. Membranes were also incubated with unconjugated primary antibodies for human Glut 2 (07‐1402, 1:1000), then washed and probed with secondary sheep anti‐mouse and donkey anti‐rabbit antibodies (NA931V and NA934V, 1:2500, 2 h, room temperature; Cytiva, Marlborough, MA, USA). GAPDH (sc‐25778 HRP or sc‐47724, 1:4000) was used as the protein loading control and was used to evaluate the relative expression of each protein. Clarity Western ECL Substrate (Bio‐Rad, Hercules, CA, USA) and ImageQuant 800 System (GE Healthcare, Buckinghamshire, UK) were used for imaging.

[5] = test system: IRS‐1 (Insulin receptor substrate 1); experiment: Insulin receptor phospho antibody microarray: IRS‐1; format: cell-based, human; conditions: VP 9.58 µM, HepG2, healthy state, related to the untreated control, p < 0.05
Procedure: as §2

[6] = test system: Glut 2; experiment: Western blot Glut 2 protein expression in HepG2 cells; format: cell-based, human; conditions: for Glut 2 protein expression, increase over untreated controls: healthy state (NG, 5.5 mM glucose), linagliptin 1 nM; for Glut 2 protein expression, increase over untreated controls / Glut 2 protein expression, increase over untreated insulin‐resistant cells: VP 9.58 µM, IPA 7.86 µM, DLDV 1790 µM, 24 h; for Glut 2 protein expression, increase over untreated insulin‐resistant cells: insulin‐resistant state (HG, 25 mM glucose with 100 nM insulin)
Procedure: as §1, §3

[7] = test system: IR (Insulin receptor); experiment: Insulin receptor phospho antibody microarray: IR; format: cell-based, human; conditions: VP 9.58 µM, HepG2, healthy state, related to the untreated control, p < 0.05
Procedure: as §2

[8] = test system: Akt1S1 (AKT1 substrate 1); experiment: Insulin receptor phospho antibody microarray: Akt1S1; format: cell-based, human; conditions: VP 9.58 µM, HepG2, healthy state, related to the untreated control, p < 0.05
Procedure: as §2

[9] = test system: Akt‐1; experiment: Western blot Akt‐1 protein expression in HepG2 cells; format: cell-based, human; conditions: VP 9.58 µM, IPA 7.86 µM, DLDV 1790 µM, 24 h; for Akt‐1 protein expression, increase over untreated controls: healthy state (NG, 5.5 mM glucose), linagliptin 1 nM; for Akt‐1 protein expression, increase over untreated insulin‐resistant cells: insulin‐resistant state (HG, 25 mM glucose with 100 nM insulin)
Procedure: as §1, §3

[10] = test system: PP2A‐α (Protein phosphatase 2 alpha); experiment: Insulin receptor phospho antibody microarray: PP2A‐α; format: cell-based, human; conditions: VP 9.58 µM, HepG2, healthy state, related to the untreated control, p < 0.05
Procedure: as §2

[11] = test system: Glut 2; experiment: Glut 2 immunocytochemical fluorescence confocal microscopy in HepG2 cells; format: cell-based, human; conditions: VP 9.58 µM, linagliptin 1 nM; for Glut 2 fluorescence emission, higher than the untreated control: healthy state; for Glut 2 fluorescence emission, increase compared to the untreated insulin‐resistant cells: insulin‐resistant state
Procedure: as §1
The expression of Glut 2 due to the peptide treatment (VP, 9.58 µM) was investigated in HepG2 cells seeded in Ibidi imaging dish (Ibidi, Fitchburg, WI, USA). Cells were treated as described in Section 2.4. The positive control (1 nM linagliptin) was also tested. The immunocytochemical fluorescence confocal microscopy was performed according to a previous procedure. In brief, cells were fixed, permeabilized, blocked, and incubated with Glut 2 antibodies (07‐1402, 1:1000) overnight at 4°C. Cells were then washed twice, incubated with anti‐rabbit IgG secondary antibody (A‐11012; 1:200) for 2 h in the dark, cured with ProLong Gold Antifade Reagent with DAPI (4′,6‐diamidino‐2‐phenylindole), and stored at 4°C until imaging. Cell images were obtained with 63× oil immersion objective (Glut 2: excitation wavelength: 557 nm, emission wavelength: 572 nm; DAPI: excitation wavelength: 353 nm; emission wavelength: 465 nm) using a Carl Zeiss LSM 900 Laser Scanning Microscope (Carl Zeiss AG, Germany).

[12] = test system: IRS‐1; experiment: Western blot IRS‐1 protein expression in HepG2 cells; format: cell-based, human; conditions: VP 9.58 µM, IPA 7.86 µM, DLDV 1790 µM, 24 h; for IRS‐1 protein expression, increase over untreated controls: healthy state (NG, 5.5 mM glucose), linagliptin 1 nM; for IRS‐1 protein expression, increase over untreated insulin‐resistant cells: insulin‐resistant state (HG, 25 mM glucose with 100 nM insulin)
Procedure: as §1, §3

[13] = test system: Akt (AKT serine/threonine kinase); experiment: Insulin receptor phospho antibody microarray: Akt; format: cell-based, human; conditions: VP 9.58 µM, HepG2, healthy state, related to the untreated control, p < 0.05
Procedure: as §2

[14] = test system: mTOR (Mechanistic target of rapamycin); experiment: Insulin receptor phospho antibody microarray: mTOR; format: cell-based, human; conditions: VP 9.58 µM, HepG2, healthy state, related to the untreated control, p < 0.05
Procedure: as §2

[15] = test system: AMPK1/AMPK2 (AMP‐activated protein kinase catalytic subunit alpha‐1/2); experiment: Insulin receptor phospho antibody microarray: AMPK1/AMPK2; format: cell-based, human; conditions: VP 9.58 µM, HepG2, healthy state, related to the untreated control, p < 0.05
Procedure: as §2

Chain of purified human DPP IV enzyme (P27487 whole entry): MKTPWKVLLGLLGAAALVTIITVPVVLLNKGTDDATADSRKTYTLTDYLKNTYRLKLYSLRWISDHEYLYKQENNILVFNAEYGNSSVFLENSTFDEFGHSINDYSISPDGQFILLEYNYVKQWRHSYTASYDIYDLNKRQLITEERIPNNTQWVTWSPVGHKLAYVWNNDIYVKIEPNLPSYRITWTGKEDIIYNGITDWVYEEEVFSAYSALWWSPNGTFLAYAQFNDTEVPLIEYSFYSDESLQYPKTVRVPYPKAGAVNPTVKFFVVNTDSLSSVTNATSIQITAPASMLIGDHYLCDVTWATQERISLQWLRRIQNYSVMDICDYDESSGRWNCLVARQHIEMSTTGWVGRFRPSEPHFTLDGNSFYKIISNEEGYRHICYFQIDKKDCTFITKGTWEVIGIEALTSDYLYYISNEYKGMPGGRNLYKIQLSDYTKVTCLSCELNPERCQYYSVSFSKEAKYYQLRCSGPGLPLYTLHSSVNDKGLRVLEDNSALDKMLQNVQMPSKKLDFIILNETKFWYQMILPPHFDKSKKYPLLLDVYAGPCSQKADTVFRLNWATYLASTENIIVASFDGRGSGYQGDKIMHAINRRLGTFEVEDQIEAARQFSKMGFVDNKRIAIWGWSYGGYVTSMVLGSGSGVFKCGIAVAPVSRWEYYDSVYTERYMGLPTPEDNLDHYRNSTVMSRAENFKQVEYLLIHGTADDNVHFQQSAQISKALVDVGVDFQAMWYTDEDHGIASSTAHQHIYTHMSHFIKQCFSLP
T1 sequence (P27487 whole entry): as above

Q: Which IC20 [1] does the source give for CC[C@H](C)[C@H](N)C(=O)N1CCC[C@H]1C(=O)N[C@@H](C)C(=O)O [IPA, Ile‐Pro‐Ala] (H-Ile-Pro-Ala-OH) here?
A: Its IC20 is 3.66 µM.

Q: What about the IC50 ([1]; read-out: DPP IV inhibition IC50) of the same compound?
A: Its IC50 is 7.86 µM.

Q: And the IC20 [2]?
A: The IC20 was 33.1 µM.

Q: And the IC50 [2]?
A: Its IC50 is 70.5 µM.

Q: Which results are given for CC(C)[C@H](N)C(=O)N1CCC[C@H]1C(=O)O [VP, Val‐Pro] (H-Val-Pro-OH; N-terminus and C-terminus assumed)?
A: Shc Phosphorylated/Non‐phosphorylated ratio [3]: 3.2^* Fold Change; ACCα protein expression, change versus untreated controls [4]: no changes; ACCα protein expression, change versus untreated insulin‐resistant cells [4]: not different; IRS‐1 Phosphorylated/Non‐phosphorylated ratio [5]: 0.2^* Fold Change; Power in increasing Glut 2 protein expression relative to the digested adzuki bean β‐vignin protein ([6]; HepG2, comparison based on previous data): > 100 times; Glut 2 protein expression, increase over untreated controls [6]: > 25%; Glut 2 protein expression, increase over untreated insulin‐resistant cells [6]: > 25%; IR Phosphorylated/Non‐phosphorylated ratio [7]: 1.7^* Fold Change; IC20 [1]: 4.69 µM; Akt1S1 Phosphorylated/Non‐phosphorylated ratio [8]: 1.3^* Fold Change; Akt‐1 protein expression, increase over untreated controls [9]: > 25%; Akt‐1 protein expression, increase over untreated insulin‐resistant cells [9]: > 25%; IC20 [2]: 200 µM; PP2A‐α Phosphorylated/Non‐phosphorylated ratio [10]: 2.6^* Fold Change; Glut 2 fluorescence emission, higher than the untreated control [11]: 36%; Glut 2 fluorescence emission, increase compared to the untreated insulin‐resistant cells [11]: > 14%; IRS‐1 protein expression, increase over untreated controls [12]: > 50%; IRS‐1 protein expression, increase over untreated insulin‐resistant cells [12]: > 25%; Akt Phosphorylated/Non‐phosphorylated ratio [13]: 3.9^* Fold Change; mTOR Phosphorylated/Non‐phosphorylated ratio [14]: 3.6^* Fold Change; AMPK1/AMPK2 Phosphorylated/Non‐phosphorylated ratio [15]: 3.5^* Fold Change

Q: Which results are given for CC#CCn1c(N2CCC[C@@H](N)C2)nc2c1c(=O)n(Cc1nc(C)c3ccccc3n1)c(=O)n2C [linagliptin, Linagliptin, reference compound]?
A: ACCα protein expression, change versus untreated controls [4]: no changes; Glut 2 protein expression, increase over untreated controls [6]: > 25%; Akt‐1 protein expression, increase over untreated controls [9]: > 25%; Glut 2 fluorescence emission, higher than the untreated control [11]: 36%; Glut 2 fluorescence emission, increase compared to the untreated insulin‐resistant cells [11]: > 14%; IRS‐1 protein expression, increase over untreated controls [12]: > 50%

Q: With Asp‐Leu‐Asp‐Val [DLDV] as the compound, how does the “ACCα protein expression, change versus untreated controls” value [4] read?
A: Its value is “no differences”.

Q: And the “ACCα protein expression, change versus untreated insulin‐resistant cells” value [4]?
A: Its value is “no differences”.

Q: What about the “Glut 2 protein expression, increase over untreated controls” value [6] of the same compound?
A: Its value is “no differences”.

Q: And the “Glut 2 protein expression, increase over untreated insulin‐resistant cells” value [6]?
A: The value was “no differences”.

Q: And the “Akt‐1 protein expression, increase over untreated controls” value [9]?
A: The value was “no differences”.

Q: What about the “Akt‐1 protein expression, increase over untreated insulin‐resistant cells” value [9] of the same compound?
A: The value was “no differences”.

Q: What about the “IRS‐1 protein expression, increase over untreated controls” value [12] of the same compound?
A: The value was “no differences”.

Q: And the “IRS‐1 protein expression, increase over untreated insulin‐resistant cells” value [12]?
A: The value was “no differences”.

Q: Which results are given for Leu‐Leu‐Ser [LLS]?
A: IC20 [1]: 7.13 µM; IC20 [2]: 40.1 µM

Q: Phe‐Asn‐Glu [FNE] was tested. Which “DPP IV inhibition IC5” value [1] did it give?
A: Its value is 63.52 µM.

Q: And the “DPP IV inhibition IC5” value [2]?
A: Its value is 5.65 µM.

Q: For Pro‐Met [PM], which IC20 [1] is on record?
A: Its IC20 is 5.14 µM.

Q: What about the IC20 [2] of the same compound?
A: The IC20 was 59.4 µM.
